Assay results as given in patent US20130158073A1, “Methods Of Diminishing Co-Abuse Potential” (priority 2004, published 2013).
Counter-ions that a name gives are not always drawn.

Experiments:
male Sprague-Dawley rats = conditions: coadministered with 10% w/v ethanol
[1] = cited from earlier work
[2] = co-administration of racemic methylphenidate and ethanol

COC(=O)C(c1ccccc1)C1CCCCN1 (racemic) [d,l-MPH, d,l-methylphenidate HCl]
potency compared to ethanol/cocaine for discriminative stimulus effects (male Sprague-Dawley rats; i.p.): equipotent
potency compared to ethanol/cocaine for response rate effects (male Sprague-Dawley rats; i.p.): equipotent
rates of response compared with saline control test sessions, at doses producing full ethanol/cocaine-lever responding (male Sprague-Dawley rats; i.p. 15 minutes before session): do not decrease rates of response
isomer excreted in the urine [1, 2]: primarily as the d-isomer
ethylphenidate metabolite in plasma and urine ([1]; human subjects, co-administration of a single dose of methylphenidate and ethanol): ethylphenidate was also detected in plasma and urine

CCOC(=O)C(c1ccccc1)C1CCCCN1 (centres unmarked) [Ethylphenidate]
isomer excreted in the urine [1, 2]: primarily as the l-isomer

COC(=O)[C@H](c1ccccc1)[C@H]1CCCCN1 [d-MPH, dexmethylphenidate HCl]
potency compared to ethanol/d,l-MPH (male Sprague-Dawley rats; i.p.): half as potent

COC(=O)[C@@H](c1ccccc1)[C@@H]1CCCCN1 [l-methylphenidate]
transesterification after co-administration of racemic methylphenidate and ethanol [1, 2]: transesterifies enantioselectively to l-ethylphenidate
